According to the supplement of paper PMC4862054:

Experiments:
Test in all cases: normalised response (% of control), CellTiter-Glo; higher = more viable cells (100 = DMSO, 0 = benzethonium chloride kill control)
Details in all cases: incubation time: 72 h
MDA-MB-453 = test system: MDA-MB-453
In short: (§1)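 Plates were normalised with 0.1 % DMSO as 100 and a positive kill control as 0. Breast cancer cell lines in 20 µl suspension had been seeded into 384-well plates with compound at 5 concentrations in 10-fold steps over a compound-specific 10,000-fold range, incubated 72 h, and read for CellTox Green fluorescence (485/520 nm) followed by CellTiter-Glo luminescence. Each value is the normalised signal at a single concentration.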

MFM-223 = test system: MFM-223
In short: as §1

DU-4475 = test system: DU-4475
In short: as §1

BT-474 = test system: BT-474
In short: as §1

CAL-51 = test system: CAL-51
In short: as §1

HDQ-P1 = test system: HDQ-P1
In short: as §1

MDA-MB-436 = test system: MDA-MB-436
In short: as §1

BT-549 = test system: BT-549
In short: as §1

HCC1937 = test system: HCC1937
In short: as §1

MDA-MB-231 = test system: MDA-MB-231
In short: as §1

HCC1599 = test system: HCC1599
In short: as §1

Hs578T = test system: Hs578T
In short: as §1

HCC1143 = test system: HCC1143
In short: as §1

SK-BR-3 = test system: SK-BR-3
In short: as §1

MCF-10A = test system: MCF-10A
In short: as §1

CAL-120 = test system: CAL-120
In short: as §1

MDA-MB-468 = test system: MDA-MB-468
In short: as §1

CAL-148 = test system: CAL-148
In short: as §1

CAL-85-1 = test system: CAL-85-1
In short: as §1

| SMILES | normalised response (MDA-MB-453) | normalised response (MFM-223) | normalised response (DU-4475) | normalised response (BT-474) | normalised response (CAL-51) | normalised response (HDQ-P1) | normalised response (MDA-MB-436) | normalised response (BT-549) | normalised response (HCC1937) | normalised response (MDA-MB-231) | normalised response (HCC1599) | normalised response (Hs578T) | normalised response (HCC1143) | normalised response (SK-BR-3) | normalised response (MCF-10A) | normalised response (CAL-120) | normalised response (MDA-MB-468) | normalised response (CAL-148) | normalised response (CAL-85-1) |
| --- | --- | --- | --- | --- | --- | --- | --- | --- | --- | --- | --- | --- | --- | --- | --- | --- | --- | --- | --- |
| CCC1(c2ccc(N)cc2)CCC(=O)NC1=O (stereo not given) [Aminoglutethimide] (10 nM) | 90.2% | 101% | 104% | 105% | 151% | 97.5% | 95.4% | 95.2% | 99.3% | 104% | 97% | 97.3% | 108% | 98.7% | 103% | 100% | 101% | 100% | 105% |
| Cn1c(CCCC(=O)O)nc2cc(N(CCCl)CCCl)ccc21 [Bendamustine] (10 nM) | 107% | 106% | 111% | 111% | 100% | 101% | 104% | 99.3% | 102% | 103% | 106% | 103% | 107% | 110% | 110% | 107% | 106% | 110% | 102% |
| C=C(c1ccc(C(=O)O)cc1)c1cc2c(cc1C)C(C)(C)CCC2(C)C [Bexarotene] (10 nM) | 101% | 107% | 101% | 99.8% | 137% | 106% | 100% | 97.1% | 94.6% | 100% | 96.3% | 97% | 101% | 98.8% | 99.4% | 101% | 104% | 106% | 107% |
| COc1cc2nccc(Oc3ccc(NC(=O)C4(C(=O)Nc5ccc(F)cc5)CC4)cc3)c2cc1OC [Cabozantinib] (1 nM) | 105% | 102% | 101% | 97.3% | 122% | 99.3% | 96.6% | 98.8% | 94.4% | 104% | 107% | 102% | 99.1% | 101% | 93.5% | 100% | 102% | 95.9% | 96.1% |
| N.N.[Cl][Pt][Cl] [Cisplatin] (0.1 nM) | 98.9% | 96.9% | 92% | 101% | 115% | 101% | 98.2% | 106% | 101% | 99.7% | 110% | 102% | 95.2% | 98.6% | 103% | 102% | 97.3% | 85.7% | 97.2% |
| C[C@@H](Oc1cc(-c2cnn(C3CCNCC3)c2)cnc1N)c1c(Cl)ccc(F)c1Cl [Crizotinib] (0.1 nM) | 111% | 103% | 106% | 101% | 82.4% | 96.7% | 96.7% | 104% | 100% | 102% | 82% | 96.2% | 99.3% | 81.6% | 95.6% | 102% | 91.7% | 102% | 92.6% |
| COc1cc2ncnc(Nc3ccc(F)c(Cl)c3)c2cc1NC(=O)/C=C/CN1CCCCC1 [Dacomitinib] (0.1 nM) | 99.9% | 102% | 95.3% | 99% | 71.8% | 99.8% | 102% | 102% | 104% | 102% | 93.7% | 98.5% | 107% | 99.6% | 101% | 94% | 101% | 109% | 97.5% |
| C[C@]12CC[C@@H]3c4ccc(O)cc4C[C@@H](CCCCCCCCC[S+]([O-])CCCC(F)(F)C(F)(F)F)[C@H]3[C@@H]1CC[C@@H]2O (stereo not given in full) [Fulvestrant] (0.1 nM) | 112% | 107% | 102% | 101% | 123% | 101% | 105% | 109% | 105% | 100% | 93.4% | 112% | 95.3% | 108% | 107% | 95.7% | 101% | 102% | 101% |
| O=P1(NCCCl)OCCCN1CCCl (stereo not given) [Ifosfamide] (10 nM) | 87.7% | 89.1% | 92.5% | 96.8% | 118% | 98% | 94% | 95.9% | 95.8% | 101% | 89.3% | 102% | 98.1% | 94.9% | 96.1% | 93.2% | 91.6% | 86.1% | 100% |
| CC(C)Cn1cnc2c(N)nc3ccccc3c21 [Imiquimod] (0.25 nM) | 109% | 100% | 104% | 102% | 96.8% | 94.2% | 99.6% | 99% | 97.1% | 101% | 99.2% | 99% | 99.2% | 110% | 111% | 96.5% | 91.9% | 99.6% | 103% |
